Data on two compounds can be found in US20230087941A1, “COMBINATIONS” (Recurium IP Holdings, LLC, priority 2019, published 2023).

The subject of experiment [1] is ZR-75-1-R breast cancer tumor cells (Tamoxifen resistant). Kind of experiment: ZR-75-1-R xenograft tumor model. In kind it is in vivo. The conditions noted are these: oral, daily, 28 days, ZR-75-1-R xenograft in BALB/c nude mice. The method, then:
(§1) ZR-75-1-R breast cancer tumor cells (Tamoxifen resistant) were maintained in vitro as monolayer culture in RPMI1640 Medium supplemented with 10% fetal bovine serum and 10 μM tamoxifen at 37° C. in an atmosphere of 5% CO2 in air. The cells growing in an exponential growth phase were harvested and counted for tumor inoculation. BALB/c nude mice were implanted subcutaneously in the right flank with ZR-75-1-R tumor cells (1×10^7) in 100 μl PBS:Matrigel (1:1). When tumors reached approximately 191 mm^3, animals were randomly distributed into treatment groups of 10 animals each and dosed orally, daily with vehicle, freebase Compound (A) at 30 mg/kg, Compound 1 at 80 mg/kg, or compound A at 30 mg/kg in combination with Compound 1 at 80 mg/kg for 28 days. In addition, estradiol benzoate injections were delivered by s.c. (40 μg/20 μL, twice weekly). Tumor volumes were evaluated twice per week to calculate tumor volume over time, and mice were weighed twice per week as a surrogate for signs of toxicity. Tumor growth inhibition (TGI) was calculated using the following equation TGI=(1−(Td−T0)/(Cd−C0))×100%. Td and Cd are the mean tumor volumes of the treated and control animals, and TO and CO are the mean tumor volumes of the treated and control animals at the start of the experiment.

The subject of experiment [2] is MCF-7 breast cancer tumor cells. Put plainly: MCF-7 xenograft tumor model. Format: in vivo. The conditions noted are these: Compound 1 80 mg/kg, oral, daily; MCF-7 xenograft in BALB/c nude mice. The method, then: as §1, with “In addition, estradiol benzoate injections were delivered by s.c. (40 μg/20 μL, twice weekly).” left out, “Tumor growth inhibition (TGI) was calculated using the following equation TGI=(1−(Td−T0)/(Cd−C0))×100%. Td and Cd are the mean tumor volumes of the treated and control animals, and TO and CO are the mean tumor volumes of the treated and control animals at the start of the experiment.” left out
Example 2: MCF-7 breast cancer tumor cells were cultured in vitro in DMEM Medium supplemented with 15% fetal bovine serum at 37° C. in an atmosphere of 5% CO2 in air. The cells growing in an exponential growth phase were harvested and counted for tumor inoculation. […] Tumor volumes were evaluated twice per week to calculate tumor volume over time, and mice were weighed twice per week as a surrogate for signs of toxicity. TGI values were calculated using the equation provide in Example 1.

For `C=CCn1c(=O)c2cnc(Nc3ccc(N4CCN(C)CC4)cc3)nc2n1-c1ccc2c(n1)[C@@](O)(CC)CC2` [Compound 1], the “Tumor growth inhibition (TGI)” value in experiment [1] (Compound 1 80 mg/kg) is on record as 69.9%; in experiment [2], 132.6%. For `C[C@@H]1Cc2c([nH]c3ccccc23)[C@@H](c2c(F)cc(/C=C/C(=O)O)cc2F)N1C12CC(C1)C2` [Compound (A)], the “Tumor growth inhibition (TGI)” value in experiment [1] (freebase Compound (A) 30 mg/kg) stood at 43.0%.
